Like-named read-outs stand apart in the source and are kept apart here.
Tests used:
[1] = human, microsomes, pH 7.4
Method: (§1) Test compounds (1 μM) were incubated with 3.3 mM MgCl2 and 0.78 mg/mL HLM (HL101) in 100 mM potassium phosphate buffer (pH 7.4) at 37° C. on the 96-deep well plate. The reaction mixture was split into two groups, a non-P450 and a P450 group. NADPH was only added to the reaction mixture of the P450 group. An aliquot of samples of P450 group was collected at 0, 10, 30, and 60 min time point, where 0 min time point indicated the time when NADPH was added into the reaction mixture of P450 group. An aliquot of samples of non-P450 group was collected at −10 and 65 min time point. Collected aliquots were extracted with acetonitrile solution containing an internal standard. The precipitated protein was spun down in centrifuge (2000 rpm, 15 min). The compound concentration in supernatant was measured by LC/MS/MS system.
(§2) The half-life value was obtained by plotting the natural logarithm of the peak area ratio of compounds/internal standard versus time. The slope of the line of best fit through the points yields the rate of metabolism (k).

human VR1 receptors = biological target: T1, human VR1 receptors (Homo sapiens, UniProt Q8NER1); assay: Human VR1 antagonist assay (Ca2+ imaging); assay type: cell-based; settings: cells expressing human VR1, fura-2 Ca2+ imaging, FDSS 6000; capsaicin (300 nM) or acid (pH5.8) stimulation, table does not say which
T1 construct: host or cells: cells highly expressing human VR1; cell type not specified
Method in brief: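 Human VR1-expressing cells loaded with 5 μM fura-2/AM for 1 h, resuspended at 3.75×10^5 cells/ml and preincubated 15 min at room temperature in the dark with compound. Stimulation by 300 nM capsaicin in KRH buffer pH 7.3, or by acid (HBSS/MES, final pH 5.8) from HBSS-HEPES pH 7.4; fluorescence (ex 340/380 nm, em 510-520 nm) monitored from 1 min before addition for 5 min.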

[2] = Half-life in Human Liver Microsomes (HLM); settings: pH 7.4; for half-life at 1 μM: human, human liver microsomes (HL101)
Method: as §1, §2

T1 sequence (Q8NER1 whole entry): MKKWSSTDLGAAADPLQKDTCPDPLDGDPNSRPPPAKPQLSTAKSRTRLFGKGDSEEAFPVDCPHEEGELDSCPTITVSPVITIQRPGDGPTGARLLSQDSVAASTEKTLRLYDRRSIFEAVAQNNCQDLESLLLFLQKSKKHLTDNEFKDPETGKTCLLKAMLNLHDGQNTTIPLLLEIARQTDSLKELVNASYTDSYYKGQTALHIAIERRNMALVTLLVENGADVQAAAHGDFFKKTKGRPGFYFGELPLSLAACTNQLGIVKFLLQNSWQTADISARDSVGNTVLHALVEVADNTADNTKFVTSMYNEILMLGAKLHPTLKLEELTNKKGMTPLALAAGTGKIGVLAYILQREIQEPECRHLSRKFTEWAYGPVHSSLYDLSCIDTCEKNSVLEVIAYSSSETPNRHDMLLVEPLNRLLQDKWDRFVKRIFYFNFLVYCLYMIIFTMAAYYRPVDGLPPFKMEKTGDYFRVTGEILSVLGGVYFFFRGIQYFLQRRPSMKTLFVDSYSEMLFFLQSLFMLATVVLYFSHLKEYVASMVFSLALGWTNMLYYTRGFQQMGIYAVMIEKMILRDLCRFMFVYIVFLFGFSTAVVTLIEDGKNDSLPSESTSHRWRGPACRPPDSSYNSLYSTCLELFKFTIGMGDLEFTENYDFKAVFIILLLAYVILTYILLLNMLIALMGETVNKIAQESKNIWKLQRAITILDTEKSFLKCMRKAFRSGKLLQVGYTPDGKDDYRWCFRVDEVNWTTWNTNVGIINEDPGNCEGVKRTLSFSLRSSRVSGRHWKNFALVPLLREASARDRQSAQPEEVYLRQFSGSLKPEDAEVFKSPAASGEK

Compound	T1/2 [1]	IC50 (human VR1 receptors)	half-life at 1 μM [2]	T1/2 ([2]; 1 μM compound, 0.78 mg/mL HLM, 37° C., NADPH)
Cc1cc([C@@H](C)NC(=O)C2CC2c2ccc(C(C)(C)C)cc2)ccc1NS(C)(=O)=O (stereo partly shown) [Example 7, 2-(4-tert-Butylphenyl)-N-((1 FR)-1-{3-methyl-4-[(methylsulfonyl)amino]phenyl}ethyl)cyclopropanecarboxamide]	33 min	15 nM		
Cc1cc([C@@H](C)NC(=O)[C@H]2C[C@]2(C)c2cc(F)c(C(C)(C)C)c(F)c2)ccc1NS(C)(=O)=O [Example 44, 2-(4-tert-Butyl-3,5-difluorophenyl)-2-methyl-N-((1R)-1-{3-methyl-4-[(methylsulfonyl)amino]phenyl}ethyl)cyclopropanecarboxamide]		2 nM	29 min	
C[C@@H](NC(=O)[C@H]1C[C@]1(C)c1cc(F)c(C(C)(C)C)c(F)c1)c1ccc(NS(C)(=O)=O)c(F)c1 [Example 45, 2-(4-tert-Butyl-3,5-difluorophenyl)-N-((1R)-1-{3-fluoro-4-[(methylsulfonyl)amino]phenyl}ethyl)-2-methylcyclopropanecarboxamide]		5.84 nM	29 min	
Cc1cc([C@@H](C)NC(=O)[C@H]2C[C@@H]2c2ccc(C(F)(F)F)nc2N2CCCC2)ccc1NS(C)(=O)=O [Example 46, N-((1R)-1-{3-Methyl-4-[(methylsulfonyl)amino]phenyl}ethyl)-2-[2-pyrrolidin-1-yl-6-(trifluoromethyl)pyridin-3-yl]cyclopropanecarboxamide]		12.6 nM	23 min	
C[C@@H](NC(=O)[C@H]1C[C@@H]1c1ccc(C(F)(F)F)nc1N1CCCC1)c1ccc(NS(C)(=O)=O)c(CO)c1 [Example 47, N-((1R)-1-{3-(Hydroxymethyl)-4-[(methylsulfonyl)amino]phenyl}ethyl)-2-[2-pyrrolidin-1-yl-6-(trifluoromethyl)pyridin-3-yl]cyclopropanecarboxamide]		7.64 nM	11 min	
C[C@@H](NC(=O)[C@H]1C[C@@H]1c1ccc(C(C)(C)C(F)(F)F)cc1)c1ccc(NS(C)(=O)=O)c(CO)c1 [Example 48, N-((1R)-1-{3-(Hydroxymethyl)-4-[(methylsulfonyl)amino]phenyl}ethyl)-2-[4-(2,2,2-trifluoro-1,1-dimethylethyl)phenyl]cyclopropanecarboxamide]		203 nM	21 min	
Cc1cc([C@@H](C)NC(=O)C2CC2c2ccc(C(C)(C)C)nc2N2CCCCC2)ccc1NS(C)(=O)=O (stereo partly drawn) [Example 49, 2-(6-tert-Butyl-2-piperidin-1-ylpyridin-3-yl)-N-((1R)-1-{3-methyl-4-[(methylsulfonyl)amino]phenyl}ethyl)cyclopropanecarboxamide]		125 nM	3 min	
C[C@@H](NC(=O)C1CC1c1ccc(C(C)(C)C)nc1N1CCCCC1)c1ccc(NS(C)(=O)=O)c(F)c1 (stereo partly drawn) [Example 50, 2-(6-tert-Butyl-2-piperidin-1-ylpyridin-3-yl)-N-((1R)-1-{3-fluoro-4-[(methylsulfonyl)amino]phenyl}ethyl)cyclopropanecarboxamide]		239 nM	4 min	
Cc1cc([C@@H](C)NC(=O)C2CC2c2ccc(C(C)(C)C)nc2N2CCCC2)ccc1NS(C)(=O)=O (stereo partly drawn) [Example 51, 2-(6-tert-Butyl-2-pyrrolidin-1-ylpyridin-3-yl)-N-((1R)-1-{3-methyl-4-[(methylsulfonyl)amino]phenyl}ethyl)cyclopropanecarboxamide]		15.6 nM	5 min	
Cc1cc([C@@H](C)NC(=O)C2CC2c2ccc(C(C)(C)C)nc2)ccc1NS(C)(=O)=O (stereo partly drawn) [Example 53, 2-[6-tert-Butylpyridin-3-yl]-N-((1R)-1-{3-methyl-4-[(methylsulfonyl)amino]phenyl}ethyl)cyclopropanecarboxamide]		125 nM	44 min	
Cc1nc([C@@H](C)NC(=O)C2CC2(C)c2ccc(C(F)(F)F)cc2)ccc1NS(C)(=O)=O (stereo partly shown) [Example 54]		234 nM	96 min	
Cc1cc([C@@H](C)NC(=O)C2CC2(CO)c2ccc(C(C)(C)C)cc2)ccc1NS(C)(=O)=O (stereo partly drawn) [Example 59, 2-[4-tert-Butylphenyl]-2-(hydroxymethyl)-N-((1R)-1-{3-methyl-4-[(methylsulfonyl)amino]phenyl}ethyl)cyclopropanecarboxamide]		263 nM	22 min	
C[C@@H](NC(=O)[C@H]1C[C@]1(C)c1ccc(C(F)(F)F)cc1)c1cc(F)c(NS(C)(=O)=O)cc1F [Example 60, (1S,2S)-N-((1R)-1-{2,5-Difluoro-4-[(methylsulfonyl)amino]phenyl}ethyl)-2-methyl-2-[4-(trifluoromethyl)phenyl]cyclopropanecarboxamide]		25.1 nM	> 120 min	
C[C@@H](NC(=O)[C@H]1C[C@]1(C)c1ccc(C(F)(F)F)cc1)c1cc(F)c(NS(C)(=O)=O)c(F)c1 [Example 61, (1S,2S)-N-((1R)-1-{3,5-Difluoro-4-[(methylsulfonyl)amino]phenyl}ethyl)-2-methyl-2-[4-(trifluoromethyl)phenyl]cyclopropanecarboxamide]		3.17 nM	> 120 min	
COC1(c2ccc(C(F)(F)F)cc2)CC1C(=O)N[C@H](C)c1ccc(NS(C)(=O)=O)c(C)c1 (stereo partly drawn) [Example 63, N-((1R)-1-{3-Methyl-4-[(methylsulfonyl)amino]phenyl}ethyl)-2-(methyloxy)-2-[4-(trifluoromethyl)phenyl]cyclopropanecarboxamide]		6.66 nM	35.6 min	

Results, then the compound that gave them:

T1/2 [1]	IC50 (human VR1 receptors)	half-life at 1 μM [2]	T1/2 ([2]; 1 μM compound, 0.78 mg/mL HLM, 37° C., NADPH)	Compound
	4.62 nM	14 min		COC1(c2ccc(C(C)(C)C)cc2)CC1C(=O)N[C@H](C)c1ccc(NS(C)(=O)=O)c(C)c1 (stereo partly drawn) [Example 64, 2-[4-tert-Butylphenyl]-N-((1R)-1-{3-methyl-4-[(methylsulfonyl)amino]phenyl}ethyl)-2-(methyloxy)cyclopropanecarboxamide]
	0.421 nM	34 min		Cc1cc([C@@H](C)NC(=O)C2CC2(C)c2ccc(C(F)(F)F)c(F)c2)ccc1NS(C)(=O)=O (stereo partly drawn) [Example 66, 2-[3-Fluoro-4-(trifluoromethyl)phenyl]-2-methyl-N-((1R)-1-{3-methyl-4-[(methylsulfonyl)amino]phenyl}ethyl)cyclopropanecarboxamide]
	5.64 nM	95 min		C[C@@H](NC(=O)C1CC1(C)c1ccc(C(F)(F)F)c(F)c1)c1ccc(NS(C)(=O)=O)c(F)c1 (stereo partly drawn) [Example 67, N-((1R)-1-{3-Fluoro-4-[(methylsulfonyl)amino]phenyl}ethyl)-2-[3-fluoro-4-(trifluoromethyl)phenyl]-2-methylcyclopropanecarboxamide]
	62 nM	18 min		Cc1cc([C@@H](C)NC(=O)C2CC2c2ccc(C(C)(C)C)cc2CO)ccc1NS(C)(=O)=O (stereo partly drawn) [Example 68, 2-[4-tert-Butyl-2-(hydroxymethyl)phenyl]-N-((1R)-1-{3-methyl-4-[(methylsulfonyl)amino]phenyl}ethyl)cyclopropanecarboxamide]
	212 nM	30 min		C[C@@H](NC(=O)C1CC1(C)c1ccc(S(=O)(=O)C(F)(F)F)cc1)c1ccc(NS(C)(=O)=O)c(CO)c1 (stereo partly drawn) [Example 69, N-((1R)-1-{3-(Hydroxymethyl)-4-[(methylsulfonyl)amino]phenyl}ethyl)-2-methyl-2-{4-[(trifluoromethyl)sulfonyl]phenyl}cyclopropanecarboxamide]
	0.83 nM		38 min	Cc1cc([C@@H](C)NC(=O)[C@H]2C[C@]2(C)c2ccc(C(F)(F)F)cc2)ccc1NS(C)(=O)=O [Example 70, (1S,2S)-2-Methyl-N-((1R)-1-{3-methyl-4-[(methylsulfonyl)amino]phenyl}ethyl)-2-[4-(trifluoromethyl)phenyl]cyclopropanecarboxamide]
>120 min	0.76 nM			C[C@@H](NC(=O)C1CC1(C)c1ccc(C(F)(F)F)c(F)c1)c1cc(F)c(NS(C)(=O)=O)c(F)c1 (stereo partly drawn) [Example 73, N-((1R)-1-{3,5-Difluoro-4-[(methylsulfonyl)amino]phenyl}ethyl)-2-[3-fluoro-4-(trifluoromethyl)phenyl]-2-methylcyclooropanecarboxamide]
	21 nM	> 120 min		C[C@@H](NC(=O)[C@@H]1C[C@@]1(C)c1ccc(C(F)(F)F)c(F)c1)c1cc(F)c(NS(C)(=O)=O)c(F)c1 [Example 74, N-((1R)-1-{3,5-Difluoro-4-[(methylsulfonyl)amino]phenyl}ethyl)-2-[3-fluoro-4-(trifluoromethyl)phenyl]-2-methylcyclopropanecarboxamide]
	26.3 nM	33 min		CC[C@@H](NC(=O)[C@H]1C[C@@H]1c1cc(F)c(C(C)(C)C)c(F)c1)c1ccc(NS(C)(=O)=O)c(C)c1 [Example 76, 2-(4-tert-Butyl-3,5-difluorophenyl)-N-((1R)-1-{3-methyl-4-[(methylsulfonyl)amino]phenyl}propyl)cyclopropanecarboxamide]
	20.5 nM	22 min		Cc1cc([C@@H](C)NC(=O)[C@H]2C[C@@H]2c2ccc(C(F)(F)F)nc2N(C)C)c(F)cc1NS(C)(=O)=O [Example 79, 2-[2-(Dimethylamino)-6-(trifluoromethyl)pyridin-3-yl]-N-((1R)-1-{2-fluoro-5-methyl-4-[(methylsulfonyl)amino]phenyl}ethyl)cyclopropanecarboxamide]
	24.5 nM	3 min		Cc1cc([C@@H](C)NC(=O)[C@H]2C[C@]2(C)c2ccc(C(F)(F)F)nc2N2CCOCC2)ccc1NS(C)(=O)=O [Example 84, 2-Methyl-N-((1R)-1-{3-methyl-4-[(methylsulfonyl)amino]phenyl}ethyl)-2-[2-morpholin-4-yl-6-(trifluoromethyl)pyridin-3-yl]cyclopropanecarboxamide]

From patent US7915448B2, “Substituted sulfonylaminoarylmethyl cyclopropanecarboxamide as VR1 receptor antagonists” (Pfizer Inc., priority 2005, dated 2011)
